Data: US8993570B2, “Substituted triazolo-pyridazine derivatives” (Concert Pharmaceuticals, Inc., priority 2009, dated 2015)

What was measured:
[1] = Metabolic stability in human liver microsomes; format: in vitro ADME; details: 0.25 μM test compound; for % Parent Remaining (30 min) Ave ± SD: human liver microsomes 2.0 mg/mL, 2 mM NADPH, pH 7.4, 37° C.; for half-life at 0.25 μM: pH 7.4, in vitro t1/2 in human liver microsomes 2.0 mg/mL, NC = not calculable due to <20% metabolism in HLM and flat profiles, read-out: t1/2 (min) Ave ± SD
Description: Microsomal Assay: Human liver microsomes (20 mg/mL) were obtained from Xenotech, LLC (Lenexa, Kans.). β-nicotinamide adenine dinucleotide phosphate, reduced form (NADPH), magnesium chloride (MgCl2), and dimethyl sulfoxide (DMSO) were purchased from Sigma-Aldrich.
Determination of Metabolic Stability: 7.5 mM stock solutions of test compounds were prepared in DMSO. The 7.5 mM stock solutions were diluted to 12.5 μM in acetonitrile (ACN). The 20 mg/mL human liver microsomes were diluted to 2.5 mg/mL in 0.1 M potassium phosphate buffer, pH 7.4, containing 3 mM MgCl2. The diluted microsomes were added to wells of a 96-well deep-well polypropylene plate in triplicate. […] of the 12.5 μM test compound was added to the microsomes and the mixture was pre-warmed for 10 minutes. Reactions were initiated by addition of pre-warmed NADPH solution. The final reaction volume was 0.5 mL and contains 2.0 mg/mL human liver microsomes, 0.25 μM test compound, and 2 mM NADPH in 0.1 M potassium phosphate buffer, pH 7.4, and 3 mM MgCl2. The reaction mixtures were incubated at 37° C., and 50 μL aliquots were removed at 0, 5, 10, 20, and 30 minutes and added to shallow-well 96-well plates which contain 50 μL of ice-cold ACN with internal standard to stop the reactions. The plates were stored at 4° C. for 20 minutes after which 100 μL of water was added to the wells of the plate before centrifugation to pellet precipitated proteins. Supernatants were transferred to another 96-well plate and analyzed for amounts of parent remaining by LC-MS/MS using an Applied Bio-systems API 4000 mass spectrometer. The same procedure was followed for TPA-023 and the positive control, 7-ethoxycoumarin (1 μM). Testing was done in triplicate and individual compounds were tested in two or four different runs.
The in vitro t1/2s for test compounds were calculated from the slopes of the linear regression of % parent remaining (ln) vs incubation time relationship: in vitro t1/2=0.693/k k=−[slope of linear regression of % parent remaining (ln) vs incubation time]. Data analysis was performed using Microsoft Excel Software.
The results of these experiments are shown in Table 3, below, and in FIGS. 1 and 2. In the Table and the two Figures, “% Parent remaining” refers to the percentage of starting material remaining at the specified time point.

[2] = humans, phase I clinical trial, cited from earlier work

SMILES	% Parent Remaining (30 min) Ave ± SD [1]	other results
[2H]C([2H])([2H])n1ncnc1COc1nn2c(-c3ccccc3F)nnc2cc1C(C([2H])([2H])[2H])(C([2H])([2H])[2H])C([2H])([2H])[2H] [Compound 109, 7-d9-tert-Butyl-3-(2-fluorophenyl)-6-((1-d3-methyl-1H-1,2,4-triazol-5-yl)methoxy)-[1,2,4]triazolo[4,3-b]pyridazine]	100 ± 5.7%	
[2H]C([2H])(Oc1nn2c(-c3ccccc3F)nnc2cc1C(C([2H])([2H])[2H])(C([2H])([2H])[2H])C([2H])([2H])[2H])c1ncnn1C([2H])([2H])[2H] [Compound 110, 7-d9-tert-Butyl-3-(2-fluorophenyl)-6-((1-d3-methyl-1H-1,2,4-triazol-5-yl)-methoxy-d2)-[1,2,4]triazolo[4,3-b]pyridazine]	91 ± 7.1%	
[2H]C([2H])(Oc1nn2c(-c3ccccc3F)nnc2cc1C(C([2H])([2H])[2H])(C([2H])([2H])[2H])C([2H])([2H])[2H])c1ncnn1C([2H])([2H])C([2H])([2H])[2H] [Compound 106, 7-d9-tert-Butyl-6-((1-d5-ethyl-1H-1,2,4-triazol-5-yl)-methoxy-d2)-3-(2-fluorophenyl)-[1,2,4]triazolo[4,3-b]pyridazine]	89 ± 2.5%	
[2H]C([2H])(Oc1nn2c(-c3ccccc3F)nnc2cc1C(O)(C([2H])([2H])[2H])C([2H])([2H])[2H])c1ncnn1C([2H])([2H])C([2H])([2H])[2H] [Compound 206, 2-(6-((1-d5-Ethyl-1H-1,2,4-triazol-5-1)methoxy-d2)-3-(2-fluorophenyl)-[1,2,4]triazolo[4,3-b]pyridazin-7-yl)propan-1,1,1,3,3,3-d6-2-ol]	92 ± 3.5%	
CCn1ncnc1COc1nn2c(-c3ccccc3F)nnc2cc1C(C)(C)C [TPA023, 7-tert-Butyl-6-(1-ethyl-1H-1,2,4-triazol-5-ylmethoxy)-3-(2-fluorophenyl)-1,2,4-triazolo[4,3-b]pyridazine]	62 ± 3.1%	sedative effects ([2]; certain doses tested): sedative effects at certain doses tested; anxiolytic effects [2]: anxiolytic effects; effect on alertness, muscle relaxation or memory [2]: no effect; half-life at 0.25 μM [1]: 44.5 ± 4.4 min
[2H]C([2H])([2H])C(O)(c1cc2nnc(-c3ccccc3F)n2nc1OCc1ncnn1CC)C([2H])([2H])[2H] [Compound 202, 2-(6-((1-ethyl-1H-1,2,4-triazol-5-yl)methoxy)-3-(2-fluorophenyl)[1,2,4]triazolo[4,3-b]pyridazin-7-yl)propan-1,1,1,3,3,3-d6-2-ol]	82 ± 2.8%	
[2H]C([2H])([2H])C(c1cc2nnc(-c3ccccc3F)n2nc1OCc1ncnn1CC)(C([2H])([2H])[2H])C([2H])([2H])[2H] [Compound 102, 7-d9-tert-Butyl-6-((1-ethyl-1H-1,2,4-triazol-5-yl)methoxy)-3-(2-fluorophenyl)-[1,2,4]-triazolo[4,3-b]pyridazine]	80 ± 3.3%	half-life at 0.25 μM [1]: 85.6 ± 6.1 min
[2H]C([2H])([2H])C([2H])([2H])n1ncnc1COc1nn2c(-c3ccccc3F)nnc2cc1C(C([2H])([2H])[2H])(C([2H])([2H])[2H])C([2H])([2H])[2H] [Compound 105]	90 ± 0.7%	
